Read-outs that look alike come from different tables or passages of the source. Ends that are not written are not given here.
Experiments:
Chlorella sorokiniana = system: Chlorella sorokiniana
Protocol: (§1) This example provides the minimal inhibitory concentration (MIC) of antimicrobial peptides (AMPs) for algae. […] Therefore, the tolerance of algae to the AMPs listed in Table 2 of Example 1 was measured.
(§2) Briefly, the algae viability assay used herein measured the “health” of the algae cultures by looking at the color of the algae. […] A visual assay was used to determine the MIC for the individual AMPs on the algae. In each case, a light microscope with 20× magnification was used to observe algae color.
(§3) The effect of insecticidal and non-insecticidal AMPs on three different algae species was measured. The three algae species were Auxenochlorella protothecoides, Chlorella sorokiniana and Chlamydomonas reinhardtii.
(§4) Algae cultures were initiated in 96-well plates at an OD 750 of approximately 0.1. […] The antibiotics hygromycin and paromycin served as positive controls for inhibiting and/or reducing the growth rate of algae. […] The algae cultures were monitored by preparing microscopy slides with a small sample taken from the individual wells. The algae slides were then visualized under a 20× magnification microscope for algae viability as measured by algae color.

Adineta vaga = assay type: in vivo; parameters: key to the marks not given beside the values; settings: AMP 0.5 mg/mL, 24 hr time point, room temperature, visual motility score
From the text: (§5) Briefly, the rotifer motility assay used herein in the presence of a biocontrol agent (e.g., AMP) may be used as a measure of relative rotifer viability and competency. Rotifer diet, of which algae is considered to be an important food source, is one of the key environmental factors that impact the growth and multiplication of rotifers. In effect, the inability of a rotifer to be mobile (i.e., inability to swim toward a food source and/or to have mobile cilia that help trap food) prevents the rotifer from ingesting sufficient nutrients to further grow and reproduce. Thus, any approach that reduces and/or inhibits rotifer motility has a significant impact on an individual rotifer and therefore rotifer populations. With respect to algae cultures, reducing and/or inhibiting rotifer motility prevents and/or reduces any negative impact rotifers have on algae cultures (e.g., open pond systems for algae biomass and biofuel production). In other words, reducing and/or inhibiting rotifer motility reduces and/or prevents rotifers (e.g., infestations) from ingesting and consequently damaging algae cultures use in biofuel production.
(§6) The effect of the insecticidal and non-insecticidal AMPs of Table 2 (Example 1) on three different rotifer species was measured. The three rotifer species were Adineta vaga and Philodina acuticornis (class Bdelloid rotifers), and Brachionus (Monogononta class). A visual motility assay was used to determine the impact of the individual AMPs on rotifer viability. In each case, a light microscope with 20× magnification was used to observe rotifer motility (activity). […] FIGS. 1A, 1C and 1E show a 20× magnification of Adineta vaga, Philodina acuticornis and Brachionus (untreated), respectively. FIGS. 1B, 1D and 1F show a 20× magnification of Adineta vaga, Philodina acuticornis and Brachionus (AMP treated), respectively.
(§7) Rotifer cultures were initiated in 12-well or 24-well plates at a density of approximately 100-200 rotifers/mL. The 12-well plates contained a volume of 1 mL per well, and the 24-well plates contained a volume of about 0.25 mL to about 0.35 mL per well. Individual rotifer cultures (individual wells) were incubated with a select AMP at a concentration of 0.5 mg/mL (or a range of about 78 μM to about 365 μM) for 18, 21 and 24 hours at room temperature. The rotifer cultures were monitored by preparing microscopy slides with a small sample taken from the individual wells. The slides were then visualized under a 20× magnification microscope for rotifer motility. […] The scoring system was based on observing a subset of the rotifer population from each well. The impact on the subset of rotifers observed served as a representative of the impact on the entire rotifer population for that particular AMP treatment.
(§8) A summary of the motility assay (or “Kill Assay”) for each insecticidal and non-insecticidal AMP incubated with the three different rotifer species for the 24 hour time point is provided below in Table 5 (insecticidal AMPs) and Table 6 (non-insecticidal AMPs). The 18 and 21 hour time points gave similar results to the 24 hour time point.

Philodina acuticornis = assay type: in vivo; parameters: key to the marks not given beside the values; settings: AMP 0.5 mg/mL, 24 hr time point, room temperature, visual motility score
From the text: as §5, §6, §7, §8

Brachionus = assay type: in vivo; settings: AMP 0.5 mg/mL, 24 hr time point, room temperature, visual motility score
From the text: as §5, §6, §7, §8

Chlorella protothecoides = settings: 5-6 days, room temperature, 96-well, algae colour under 20× microscope; ND = AMP killed all the algae
Protocol: as §1, §2, §3, §4

[1] = system: Chlamydomonas reinhardtii; settings: 5-6 days, room temperature, 96-well, algae colour under 20× microscope; ND = AMP killed all the algae
Protocol: as §1, §2, §3, §4

[2] = 5-6 days, room temperature, 96-well, algae colour under 20× microscope, ND = AMP killed all the algae

Molecule | Minimal Inhibitory Concentration (MIC) Chlorella sorokiana (Chlorella sorokiniana) [µM] | “Kill” Efficiency Adineta vaga (Adineta vaga) | “Kill” Efficiency Philodina (Philodina acuticornis) | “Kill” Efficiency Brachionus (Brachionus) | Minimal Inhibitory Concentration (MIC) Chlorella protothecoides (Chlorella protothecoides) [µM] | Minimal Inhibitory Concentration (MIC) Chlamydomonas reinhardtii [1] | Minimal Inhibitory Concentration (MIC) Chlorella sorokiana (Chlorella sorokiniana; [2]) [µM]
FIHHIFRGIVHAGRSIGRFLTG [Piscidin 3] | 100.3 | +++ | +++ | +++ | – | – | –
FFHHIFRGIVHVGKTIHKLVTG [Piscidin 2] | 24.6 | +++ | +++ | +++ | 24.6 | – | –
KWKLFKKIEKVGQNIRDGIIKAGPAVAVVGQATQIAK [Cecropin A] | – | +++ | ++ | – | 124.9 | 15.6 µM | 124.9
LLKELWTKIKGAGKAVLGKIKGLL [Ponericin L2] | – | +++ | +++ | – | 48.5 | 12.1 µM | 97
GFGSLFKFLAKKVAKTVAKQAAKQGAKYVANKHME [Cupiennin 1D] | – | +++ | +++ | – | 16.5 | 32.9 µM | 65.9
WLGSALKIGAKLLPSVVGLFKKKKQ [Ponericin W1] | – | +++ | +++ | +++ | 23.1 | 11.5 µM | 46.1
GIWGTALKWGVKLLPKLVGMAQTKKQ [Ponericin W4] | – | +++ | +++ | +++ | 43.8 | 11 µM | 87.6
GLVDVLGKVGGLIKKLLP [Ponericin G6] | – | – | – | +++ | 274.9 | 17.2 µM | 274.9
CC[C@H](C)[C@H](NC(=O)CN)C(=O)NCC(=O)N[C@@H](C)C(=O)N[C@H](C(=O)N[C@@H](CC(C)C)C(=O)N[C@@H](CCCCN)C(=O)N[C@H](C(=O)N[C@@H](CC(C)C)C(=O)N[C@H](C(=O)N[C@H](C(=O)NCC(=O)N[C@@H](CC(C)C)C(=O)N1CCC[C@H]1C(=O)N[C@@H](C)C(=O)N[C@@H](CC(C)C)C(=O)N[C@H](C(=O)N[C@@H](CO)C(=O)N[C@@H](Cc1c[nH]c2ccccc12)C(=O)N[C@H](C(=O)N[C@@H](CCCCN)C(=O)N[C@@H](CCCNC(=N)N)C(=O)N[C@@H](CCCCN)C(=O)N[C@@H](CCCNC(=N)N)C(=O)N[C@@H](CCC(N)=O)C(=O)N[C@@H](CCC(N)=O)C(N)=O)[C@@H](C)CC)[C@@H](C)CC)[C@@H](C)O)[C@@H](C)O)C(C)C)C(C)C [Melittin] | – | +++ | +++ | – | 11 | ND (kills) | 11
GIGKFLHSAKKFGKAFVGEIMNS [Magainin 2] | 50.7 | +++ | +++ | + | – | – | –
MASRHMFLPLIGRVLSGIL [MsrA3] | – | +++ | +++ | + | 59.2 | 29.6 µM | –
DFKDWMKTAGEWLKKKGPGILKAAMAAAT [Ponericin G4] | – | – | – | – | 158 | 19.8 µM | 79
